We go through 20 compounds from PubChem BioAssay AID298 (DTP/NCI, 2004).

The test system of this experiment is MX-1 breast xenograft, intrarenal, nude mice, tumor weight. Description: NCI In Vivo Anticancer Drug Screen. Data for tumor model Human Mammary Carcinoma MX-1 Xenograft (intrarenal inoculation) in NU/NU BALB/C (nude) mice. The settings on record: endpoint: mean tumor weight change, higher = larger tumour. The method in brief: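 T/C readout: treated-group measurement over vehicle-control measurement, using tumor size or survival in tumor-bearing mice.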
Background: In xenograft studies the graft and the host belong to different species.

[1] abbreviates: dose: 150.0 mg/kg/injection, schedule: Q04DX003 (ip), vehicle: Klucel (hydroxypropylcellulose) (HPC).
[2] abbreviates: dose: 75.0 mg/kg/injection, schedule: Q04DX003 (ip), vehicle: Klucel (hydroxypropylcellulose) (HPC).
[3] abbreviates: dose: 240.0 mg/kg/injection, schedule: Q04DX003 (ip), vehicle: saline with Tween-80.
[4] abbreviates: dose: 100.0 mg/kg/injection, schedule: Q04DX003 (ip), vehicle: saline with Tween-80.
Where [5] appears, read: dose: 200.0 mg/kg/injection, schedule: Q04DX003 (ip), vehicle: saline with Tween-80.
The mark [6] stands for this setting: dose: 400.0 mg/kg/injection, schedule: Q04DX003 (ip), vehicle: saline with Tween-80.
Where [7] appears, read: dose: 75.0 mg/kg/injection, schedule: Q04DX003 (ip), vehicle: saline with Tween-80.
Setting [8] is: dose: 150.0 mg/kg/injection, schedule: Q04DX003 (ip), vehicle: saline with Tween-80.
Where [9] appears, read: dose: 300.0 mg/kg/injection, schedule: Q04DX003 (ip), vehicle: saline with Tween-80.
[10] abbreviates: dose: 150.0 mg/kg/injection, schedule: Q04DX003 (sc), vehicle: Klucel (hydroxypropylcellulose) (HPC).
Where [11] appears, read: dose: 300.0 mg/kg/injection, schedule: Q04DX003 (sc), vehicle: Klucel (hydroxypropylcellulose) (HPC).

Where “and” joins values, the source holds several entries; their conditions need not be identical. Equal entries are not always repeated. Results filed as inconclusive are left out.

For `CCCC1(c2ccccc2)C(=O)NCNC1=O`, the T/C is 92 % of control under setting [1]; 95 % of control (dose: 300.0 mg/kg/injection, schedule: Q04DX003 (ip), vehicle: Klucel (hydroxypropylcellulose) (HPC)); 88 % of control (dose: 600.0 mg/kg/injection, schedule: Q04DX003 (ip), vehicle: Klucel (hydroxypropylcellulose) (HPC)); 55 % of control (dose: 1200.0 mg/kg/injection, schedule: Q04DX003 (ip), vehicle: Klucel (hydroxypropylcellulose) (HPC)).

Take `COc1cc2c(c3c1c(=O)c1cccc(F)c1n3C)C=CC(C)(C)O2`: the T/C under setting [2] is 46 % of control.

On to `COc1ccc(N=N/N=c2\sc3cc(OC)ccc3n2C)cc1`, for which the T/C runs as follows: (dose: 30.0 mg/kg/injection, schedule: Q04DX003 (ip), vehicle: saline with Tween-80) 68 % of control; (dose: 60.0 mg/kg/injection, schedule: Q04DX003 (ip), vehicle: saline with Tween-80) 87 % of control; (dose: 120.0 mg/kg/injection, schedule: Q04DX003 (ip), vehicle: saline with Tween-80) 65 % of control; under setting [3], 62 % of control.

Regarding `CNC(=O)N(C)N=NCCCl`, the T/C is 15 % of control under setting [4]; 10 % of control (dose: 140.0 mg/kg/injection, schedule: Q04DX003 (ip), vehicle: saline with Tween-80); 1 % of control under setting [5]; 8 % of control under setting [3]; -76 % of control under setting [6].

In the case of `Oc1ccc(/C=N/N=C/c2ccc(O)c(O)c2)cc1O`, the T/C is, setting by setting: under setting [7], 68 % of control; under setting [8], 46 % of control; under setting [9], 78 % of control; (dose: 1200.0 mg/kg/injection, schedule: Q04DX003 (ip), vehicle: saline with Tween-80) 82 % of control.

With `O=C(NNC(=O)c1cccc(C(=O)NNC(=O)c2ccc(Cl)c(Cl)c2)n1)c1ccc(Cl)c(Cl)c1`, the T/C reads like this: (dose: 50.0 mg/kg/injection, schedule: Q04DX003 (ip), vehicle: saline with Tween-80) 106 % of control; under setting [4], 78 % of control; under setting [8], 73 % of control; under setting [5], 98 % of control; under setting [9], 64 % of control; under setting [6], 102 % of control. The T/C (dose: 600.0 mg/kg/injection, schedule: Q04DX003 (ip), vehicle: saline with Tween-80) is 65 % of control.

Turning to `COc1cc(O)c2c(O)c3c(c4c2c1[C@]1(C4)C(C)=CCCC1(C)C)[C@H](O)[C@@]1(O)CC(=O)C(C(N)=O)=C(O)[C@@]1(O)C3=O`, the T/C under setting [7] is 106 % of control.

As to `CN(CCN(C)C(=O)CCOS(C)(=O)=O)C(=O)CCOS(C)(=O)=O`, the T/C is, setting by setting: (dose: 37.5 mg/kg/injection, schedule: Q04DX003 (sc), vehicle: saline) 7 % of control; (dose: 75.0 mg/kg/injection, schedule: Q04DX003 (sc), vehicle: saline) -100 % of control; (dose: 150.0 mg/kg/injection, schedule: Q04DX003 (sc), vehicle: saline) -100 % of control; (dose: 300.0 mg/kg/injection, schedule: Q04DX003 (sc), vehicle: saline) -44 % of control.

On to `O=C(CCCN1CCC(O)(c2cccc(C(F)(F)F)c2)CC1)c1ccc(F)cc1`, for which the T/C (dose: 25.0 mg/kg/injection, schedule: Q01DX010 (sc), vehicle: Klucel (hydroxypropylcellulose) (HPC)) was 33 % of control.

Take `COc1ccc2c(c1)CCn1c(C)c(COC(=O)NC(C)C)c(COC(=O)NC(C)C)c1-2`: the T/C (dose: 75.0 mg/kg/injection, schedule: Q04DX003 (ip), vehicle: distilled water + Tween-80) is -29 % of control.

`O=CNCO`: the T/C (dose: 300.0 mg/kg/injection, schedule: Q01DX010 (sc), vehicle: water) was 68 % of control; the T/C (dose: 600.0 mg/kg/injection, schedule: Q01DX010 (sc), vehicle: water) was 39 % of control; the T/C (dose: 1200.0 mg/kg/injection, schedule: Q01DX010 (sc), vehicle: water) was 11 % of control; the T/C (dose: 2000.0 mg/kg/injection, schedule: Q01DX010 (sc), vehicle: water) is 8 % of control.

As to `COC(=O)NC1C(C)OC(OC2C/C=C(/C)C3C=CC4C(OC5CC(OC6CC(O)C(OC7CC(O)C(OC)C(C)O7)C(C)O6)C(O)C(C)O5)C(C)CC(C)C4C3(C)/C(O)=C3\C(=O)OC4(CC(C)C(CO)=CC4/C=C\2C)C3=O)CC1(C)[N+](=O)[O-]` (stereo not given), the T/C runs as follows: under setting [2], 110 % of control; under setting [1], 108 % of control.

For `C[C@H]1C[C@@H]2[C@H]([C@@H](O)C[C@@]3(C)[C@H]2CC[C@]3(O)C(=O)CO)[C@@]2(C)C=CC(=O)C=C12`, the T/C by setting is: (dose: 200.0 mg/kg/injection, schedule: Q04DX003 (sc), vehicle: Klucel (hydroxypropylcellulose) (HPC)) 37 % of control; (dose: 400.0 mg/kg/injection, schedule: Q04DX003 (sc), vehicle: Klucel (hydroxypropylcellulose) (HPC)) 47 % of control; (dose: 800.0 mg/kg/injection, schedule: Q04DX003 (sc), vehicle: Klucel (hydroxypropylcellulose) (HPC)) 37 % of control; (dose: 1600.0 mg/kg/injection, schedule: Q04DX003 (sc), vehicle: Klucel (hydroxypropylcellulose) (HPC)) 19 % of control.

For the compound `CO[C@@]12[C@H](COC(N)=O)C3=C(C(=O)C(C)=C(N)C3=O)N1C[C@@H]1N[C@@H]12`, the T/C was 9 % of control and 14 % of control (dose: 1.5 mg/kg/injection, schedule: Q04DX003 (sc), vehicle: saline); -100 % of control (dose: 6.0 mg/kg/injection, schedule: Q04DX003 (ip), vehicle: suspension in saline); -100 % of control (dose: 8.0 mg/kg/injection, schedule: Q04DX003 (ip), vehicle: suspension in saline).

Consider `COc1c(C=O)c2c(c(OC)c1OC)-c1ccc(OC)c(=O)cc1[C@@H](NC(C)=O)CC2`, for which the T/C (dose: 9.37 mg/kg/injection, schedule: Q04DX003 (sc), vehicle: Klucel (hydroxypropylcellulose) (HPC)) was 62 % of control; the T/C (dose: 18.75 mg/kg/injection, schedule: Q04DX003 (sc), vehicle: Klucel (hydroxypropylcellulose) (HPC)) is 40 % of control; the T/C (dose: 37.5 mg/kg/injection, schedule: Q04DX003 (sc), vehicle: Klucel (hydroxypropylcellulose) (HPC)) was 13 % of control.

With `O=C1CSC(c2cccs2)N1c1nncs1` (stereo not given), the T/C is, setting by setting: (dose: 100.0 mg/kg/injection, schedule: Q04DX003 (ip), vehicle: Klucel (hydroxypropylcellulose) (HPC)) 92 % of control; (dose: 200.0 mg/kg/injection, schedule: Q04DX003 (ip), vehicle: Klucel (hydroxypropylcellulose) (HPC)) 102 % of control; (dose: 400.0 mg/kg/injection, schedule: Q04DX003 (ip), vehicle: Klucel (hydroxypropylcellulose) (HPC)) 57 % of control; (dose: 800.0 mg/kg/injection, schedule: Q04DX003 (ip), vehicle: Klucel (hydroxypropylcellulose) (HPC)) 49 % of control.

Take `C[C@]12CC[C@H](O)CC1=CC[C@@H]1[C@@H]2CC[C@]2(C)C(=O)CC[C@@H]12`: the T/C was 77 % of control (dose: 300.0 mg/kg/injection, schedule: Q04DX003 (sc), vehicle: saline with Tween-80); 76 % of control (dose: 600.0 mg/kg/injection, schedule: Q04DX003 (sc), vehicle: saline with Tween-80); 63 % of control (dose: 1200.0 mg/kg/injection, schedule: Q04DX003 (sc), vehicle: saline with Tween-80); 68 % of control (dose: 2400.0 mg/kg/injection, schedule: Q04DX003 (sc), vehicle: saline with Tween-80).

For the compound `COC1C(CO)OC(n2cnc3c(=S)nc(N)[nH]c32)C1O` (stereo not given), the T/C was 105 % of control under setting [10] and 48 % of control under setting [11].

As for `CC(C)NC(=O)N(CCCCBr)N=O`, the T/C by setting is: under setting [10], -61 % of control; under setting [11], -100 % of control.

With `ClCC[N+]12CC[N+](CCCl)(CC1)C2`, the T/C was 34 % of control (dose: 75.0 mg/kg/injection, schedule: Q04DX003 (sc), vehicle: water); 23 % of control and 27 % of control (dose: 100.0 mg/kg/injection, schedule: Q01DX010 (sc), vehicle: saline with Tween-80); 18 % of control (dose: 150.0 mg/kg/injection, schedule: Q04DX003 (sc), vehicle: water); 16 % of control and 19 % of control (dose: 200.0 mg/kg/injection, schedule: Q01DX010 (sc), vehicle: saline with Tween-80); 3 % of control (dose: 300.0 mg/kg/injection, schedule: Q04DX003 (sc), vehicle: water).
